In the assay the test system is Rattus norvegicus. The assay can be described thus: Antiarrhythmic activity in iv dosed rat. In kind it is functional. The settings on record: Heart; for minimal effective dose: read-out: MED.

Bounds are passed on as bounds.

Regarding `O=C1NC(c2ccccc2)=C([N+](=O)[O-])C(c2cccnc2)N1` (stereo not given), the LD50 is above 1000 mg/kg and the minimal effective dose worked out at 35 µg/kg. For `O=C1NC(c2ccccc2)=C([N+](=O)[O-])C(c2ccc(O)cc2)N1` (stereo not given) the same measures were above 5000 mg/kg and 35 µg/kg. On the same counts, the results for `O=C1NC(c2ccccc2)=C([N+](=O)[O-])C(c2cccc(F)c2)N1` (stereo not given) are above 5000 mg/kg and 0.35 µg/kg. `COc1ccc(CCN(C)CCCC(C#N)(c2ccc(OC)c(OC)c2)C(C)C)cc1OC` (stereo not given): it took a dose of 1.1 mg/kg to reach the 50% effect level (ED50). Turning to `O=C1NC(c2ccccc2)=C([N+](=O)[O-])C(c2cccs2)N1` (stereo not given), the LD50 is above 1000 mg/kg and the minimal effective dose was 3500 µg/kg. For `O=C1NC(c2ccccc2)=C([N+](=O)[O-])C(c2ccccc2)N1` (stereo not given) the same measures were above 5000 mg/kg and 35 µg/kg. For `O=C1NC(c2ccccc2)=C([N+](=O)[O-])C(c2cccc([N+](=O)[O-])c2)N1` (stereo not given) the same measures were above 1000 mg/kg and 0.045 µg/kg. For the molecule `COC(=O)C1=C(C)NC(C)=C(C(=O)OC)C1c1ccccc1[N+](=O)[O-]` [NIFEDIPINE], the LD50 worked out at 210 mg/kg and the minimal effective dose is 3500 µg/kg.
